For series [1] the following is noted: 90 min, pH 7.
Series [2] is described as follows: physchem. Particulars: pH 7.
In series [3] the test system is moderate to severe TBI patients. The following applies: 3 days of intravenous treatment, 100 moderate to severe TBI patients; cited from earlier work.
Series [4] in a line: physchem. Particulars: kinetic from dmso stock.
The test system of a further series is Primary cortical cells. In words: Reduction of neuronal cell death after a glutamate challenge (MTT / LDH release). The series is classed as cell-based. The following applies: for inhibition at 5 µM: 24 h, read-out: reduction in cell death at a 5 μM dose; for dose at maximum efficacy: primary cortical cells; for Emax: read-out: maximum efficacy, reduction in cell death.

Series [5] deals with cerebral edema in rats following bilateral cortical contusion. Particulars: rat; for reduction of brain edema after 24 hours compared to untreated rats: in vivo.
The conditions of series [6]: buffer.
Series [7] in a line: physchem. Particulars: aqueous with cosolvent or surfactant or cyclodextrin.
The conditions of series [8]: male, Sprague-Dawley (SD), rat, in vivo, iv, 10 mg/kg.
For series [9] the following is noted: human plasma.
Series [10] in a line: Exposure to rat S9 liver fractions. In kind it is in vitro ADME. The following applies: hydrochloride.
For series [11] the following is noted: rat plasma.
The nature of series [12]: Rat pharmacokinetic profile, i.m. injection. In kind it is in vivo. The following applies: rats. The method, then: PK Animal Methods. Rat PK studies were done in jugular cannulated male SD rats, weighing 250-300 grams. 7 was dosed i.v. and i.m.; 13 was dosed i.m. only. For i.v. dosing 7 was formulated in PEG 300/glycofurol/Tween 80/water (26/5/2/67) and dosed @ 10 mg/kg and 3.3 ml/kg. For i.m. dosing, both compounds were formulated in propylene glycol/Tween 80/50 mM Citrate, pH 5.0 (40/4/56) and dosed @10 mg/kg and 1 ml/kg into the upper leg. Blood samples (0.3 ml) were taken at 0.25, 0.50, 1, 2, 4, 6 & 8 hours in the i.m. experiments; the same time points were used for the i.v. experiment, with the addition of an early 0.08 hr (5 min) time point. Samples were collected in either Li heparin or K EDTA microtainers, centrifuged at 2000×g for 10 minutes. Plasma was then transferred to 2 ml Eppendorf tubes, frozen on dry ice and transferred to a −80° C. freezer for storage until analysis for prodrug, oxime and progesterone by LC/MS/MS, followed by pharmacokinetic analysis by WinNonlin.

Series [13] is described as follows: In vitro metabolism in human liver microsomes. Particulars: human liver microsomes at 37° C., 0-60 min.

Values after ≈ are worked out from the molar mass of the structure shown. Where two headings read alike, the source gives them in different places.

Broadly, the Aqueous solubility is the concentration that dissolves in the medium under given conditions. Read a high Aqueous solubility as much dissolved substance. Usually half-life stands for the time needed for the level to fall by half in the phase considered. Lower therefore signals rapid decline. The solubility is the dissolved amount per volume that the medium holds. Consider `CC(=O)[C@H]1CC[C@H]2[C@@H]3CCC4=CC(=O)CC[C@]4(C)[C@H]3CC[C@]12C` [PROG, Progesterone, reference compound], for which, in [1], the “Aqueous solubility at pH 7” value was under 25 μM. In “physchem [2]” (phosphate buffer), this molecule registered a half-life of over 240 h. The reduction of mortality entry in [3] is given as “over 60%”. For the same molecule, the solubility at 90 min in the series “physchem [4]” (pH 4, aqueous buffer) was under 25 µM. Also, the solubility at 90 min in “physchem [4]” (pH 7, aqueous buffer) is under 25 µM. For the same molecule, the “efficacy at the 5 μM dose” value with Primary cortical cells (5 μM, glutamate challenge) is given as “nearly ineffective”. In the series with Primary cortical cells, the inhibition at 5 µM came to 4% and the Emax came to 42%. Also, the “dose at maximum efficacy” value in the series with Primary cortical cells (glutamate challenge) turned out to be 20 µM. Moreover, the “reduction of brain edema after 24 hours compared to untreated rats” value (from here on “reduction of brain edema after 24 hours”) in series [5] was determined as 62%.
`C/C(=N\OC(=O)CN(C)C)[C@H]1CC[C@H]2[C@@H]3CCC4=CC(=O)CC[C@]4(C)[C@H]3CC[C@]12C` [Compound 10, (8S,9S,10R,13S,14S,17S)-17-((E)-1-(2-(Dimethylamino)acetoxyimino)ethyl)-10,13-dimethyl-6,7,8,9,10,11,12,13,14,15,16,17-dodecahydro-1H-cyclopenta[a]phenanthren-3(2H)-one]: the solubility at 90 min was 449 µM (≈ 186 µg/mL) in “physchem [4]” (pH 4, aqueous buffer) and 171 µM (≈ 70.9 µg/mL) in “physchem [4]” (pH 7, aqueous buffer). In addition, the “Aqueous Stability t1/2 at pH = 7.0” value in series [6] is given as 6.2 h.
In turn, `C/C(=N\OC(=O)[C@@H](N)C(C)C)[C@H]1CC[C@H]2[C@@H]3CCC4=CC(=O)CC[C@]4(C)[C@H]3CC[C@]12C.Cl` [Compound 7, (8S,9S,10R,13 S,14S,17S)-17-((E)-1-((S)-2-Amino-3-methylbutanoyloxyimino)ethyl)-10,13-dimethyl-6,7,8,9,10,11,12,13,14,15,16,17-dodecahydro-1H-cyclopenta[a]phenanthren-3 (2H)-one hydrochloride] registered a solubility in the series “physchem [7]” of at least 60000 µM. In addition, the half-life in “physchem [2]” (buffer) is 11.4 h. Besides, in [8], the “levels of progesterone produced, compared with compound 1” value is “superior to those generated by compound 1”; the “plasma levels of parent, free oxime and progesterone” value is “low levels of the parent compound 7 was observed, high levels of the relative free oxime 3, and therapeutic levels of progesterone”. Also, the conversion to progesterone entry in [9] is “neither of the test compounds were converted to progesterone”. In series [10], the “metabolism in rat S9 liver fractions” value was “relatively stable and no measurable quantities of progesterone were generated”. Further, the conversion to progesterone result in [11] is on record as “neither of the test compounds were converted to progesterone”. This molecule returned a solubility at 90 min in “physchem [4]” (pH 4, aqueous buffer) of over 645 µM. This molecule showed a solubility at 90 min in the series “physchem [4]” (pH 7, aqueous buffer) of 146 µM. In the series with Primary cortical cells, the inhibition at 5 µM worked out at 24% and the Emax is 24%. Besides, the “dose at maximum efficacy” value in the series on Primary cortical cells (glutamate challenge) is 5 µM. Besides, in [5], the “reduction of brain edema after 24 hours” value worked out at 56%. Besides, in series [12], the “Cmax and AUC, compared with 1” value is “significantly higher Cmax and AUC than the relative C-3 oxime 1”; the “plasma levels of free oxime, parent prodrug and progesterone” value is reported as “generated measurable concentrations of the corresponding oximes without evidence of either the parent prodrug or progesterone”.
Take `CC(=O)[C@H]1CC[C@H]2[C@@H]3CCC4=C/C(=N/OC(=O)[C@@H](N)C(C)C)CC[C@]4(C)[C@H]3CC[C@]12C.Cl` [Compound 1, (S)-1-((E)-((8S,9S,10R,13S,14S,17S)-17-Acetyl-10,13-dimethyl-7,8,9,11-tetrahydro-1H-cyclopenta[a]phenanthren-3 (2H,6H, 1 OH, 12H, 13H, 14H, 15H, 16H, 17H)-ylidene)aminooxy)-2-amino-3-methylbutan-1-one Hydrochloride]: in series [13], the “metabolism in human liver microsomes” value was “hydrolyzed rapidly to the free oxime 2 as well as lesser quantities of progesterone”. For the same molecule, in series [8], the “plasma levels of parent, free oxime and progesterone” value was “hydrolyzed rapidly to provide large concentrations of the free oxime 2 and smaller concentrations of progesterone”. Besides, the conversion to progesterone result in [9] and in [11] was “neither of the test compounds were converted to progesterone” each time. For the same molecule, the solubility at 90 min in the series “physchem [4]” (pH 4, aqueous buffer) worked out at 322 µM; in the series “physchem [4]” (pH 7, aqueous buffer) it was 172 µM. For the same molecule, in the series on Primary cortical cells, the inhibition at 5 µM came to 27%. Moreover, the “dose at maximum efficacy” value in the series on Primary cortical cells (glutamate challenge) was 5 µM. The Emax in the series with Primary cortical cells was determined as 27%. Besides, the “activity in in vitro and in vivo models of brain injury TBI” value in series [5] was “activity similar to that of progesterone”. In addition, the “reduction of brain edema after 24 hours” value in series [5] came out at 59%. Also, in [12], the “plasma levels of free oxime, parent prodrug and progesterone” value is “generated measurable concentrations of the corresponding oximes without evidence of either the parent prodrug or progesterone”.

These data come from patent US11274118B2 (priority 2012, dated 2022).
